In patent publication US8287845B2, “Hair-binding peptides” (E I du Pont de Nemours and Company, priority 2008, dated 2012):

Details: biotinylated peptide in TBST with 1 mg/mL BSA, 1 hour at room temperature, streptavidin-HRP/TMB, A450; MB50 calculated from Scatchard plots
Method: The MB50 provides an indication of the strength of the binding interaction or affinity of the components of the complex.
Then, the streptavidin-horseradish peroxidase (HRP) conjugate (Pierce Chemical Co., Rockford, Ill.) was added to each well (1.0 μg per well), and incubated for 1 h at room temperature, followed by 6 times of washes with TBST. […] The results were plotted as A450 versus the concentration of peptide using GraphPad Prism 4.0 (GraphPad Software, Inc., San Diego, Calif.).

SLRRRWTTFGKILRRWTLPTAMLLVMM-K(biotin)-NH2 [CXH-W4]
MB50: 21 nM

RRSMSLRMLTRGIKWSAMAYLASRWIL-K(biotin)-NH2 [CXH-W3]
MB50: 72 nM
